Patent US9884832B2 (priority 2011, dated 2018)
Read-outs that look alike come from different tables or passages of the source.

Key:
[1] = molecular target: AM2 S31N (serine→asparagine mutation at residue 31 in the M2 protein) (Influenza A virus, UniProt P0DOF5, S31N); type: cell-based, influenza virus A/Udorn/72
[2] = molecular target: AM2 V27A (valine→alanine mutation at residue 27 in the M2 protein) (Influenza A virus, UniProt P0DOF5, V27A); type: cell-based, influenza virus A/Udorn/72

Compound | S31N OOcyte Inhibition at 100 uM (%) ([1]; pH 5.5) | S31N OOcyte Inhibition at 100 uM (%) [1] | further results
c1ccc(CNC23CC4CC(CC(C4)C2)C3)cc1 [Example 8, Adamantan-1-yl-benzyl-amine] | B (key: (A)=31-95%; (B)=0-30%) | – | V27A OOcyte Inhibition at 100 uM (%) ([2]; pH 5.5): B (key: (A)=31-95%; (B)=0-30%)
Oc1cc(OCc2ccccc2)ccc1CNC12CC3CC(CC(C3)C1)C2 [Example 57, 2-(Adamantan-1-ylaminomethyl)-5-benzyloxy-phenol] | A (key: (A)=31-95%; (B)=0-30%) | – | V27A OOcyte Inhibition at 100 uM (%) ([2]; pH 5.5): B (key: (A)=31-95%; (B)=0-30%)
Fc1ccc(CNC23CC4CC(CC(C4)C2)C3)cc1 [Example 27, Adamantan-1-yl-(4-fluoro-benzyl)-amine] | B (key: (A)=31-95%; (B)=0-30%) | – | V27A OOcyte Inhibition at 100 uM (%) ([2]; pH 5.5): B (key: (A)=31-95%; (B)=0-30%)
CC(=O)c1sccc1-c1ccc(CNC23CC4CC(CC(C4)C2)C3)cc1 [Example 43, 1-(3-(4-((Adamantan-1-ylamino)methyl)phenyl)thiophen-2-yl)ethanone] | A (key: (A)=31-95%; (B)=0-30%) | – | V27A OOcyte Inhibition at 100 uM (%) ([2]; pH 5.5): A (key: (A)=31-95%; (B)=0-30%)
CC(C)(C)c1cc(CNC23CC4CC(CC(C4)C2)C3)[nH]n1 [Example 101a, N-((3-(tert-butyl)-1H-pyrazol-5-yl)methyl)adamantan-1-amine] | – | B (key: (A)=31-95%; (B)=0-30%) | V27A OOcyte Inhibition at 100 uM (%) [2]: B (key: (A)=31-95%; (B)=0-30%)
COc1ccc(CNC23CC4CC(CC(C4)C2)C3)cc1O [Example 61, 5-(Adamantan-1-ylaminomethyl)-2-methoxy-phenol] | B (key: (A)=31-95%; (B)=0-30%) | – | V27A OOcyte Inhibition at 100 uM (%) ([2]; pH 5.5): A (key: (A)=31-95%; (B)=0-30%)
Brc1ccc(CNC23CC4CC(CC(C4)C2)C3)cc1 [Example 41, N-(4-Bromobenzyl)adamantan-1-amine] | A (key: (A)=31-95%; (B)=0-30%) | – | V27A OOcyte Inhibition at 100 uM (%) ([2]; pH 5.5): B (key: (A)=31-95%; (B)=0-30%)
c1cc(CNC23CC4CC(CC(C4)C2)C3)cc(-c2ccco2)c1 [Example 30a, N-(3-(Furan-2-yl)benzyl)adamantan-1-amine] | – | B (key: (A)=31-95%; (B)=0-30%) | V27A OOcyte Inhibition at 100 uM (%) [2]: A (key: (A)=31-95%; (B)=0-30%)
COc1ccc(C(C)NC23CC4CC(CC(C4)C2)C3)cc1 (centres unmarked) [Example 11a, N-(1-(4-methoxyphenyl)ethyl)adamantan-1-amine] | – | A (key: (A)=31-95%; (B)=0-30%) | V27A OOcyte Inhibition at 100 uM (%) [2]: A (key: (A)=31-95%; (B)=0-30%)
c1ccc(-c2cc(CNC34CC5CC(CC(C5)C3)C4)no2)cc1 [Example 116a, N-((5-phenylisoxazol-3-yl)methyl)adamantan-1-amine] | – | A (key: (A)=31-95%; (B)=0-30%) | V27A OOcyte Inhibition at 100 uM (%) [2]: B (key: (A)=31-95%; (B)=0-30%)
CCOc1ccc(CNC23CC4CC(CC(C4)C2)C3)cc1 [Example 1a, Adamantan-1-yl-(4-ethoxy-benzyl)-amine] | – | A (key: (A)=31-95%; (B)=0-30%) | V27A OOcyte Inhibition at 100 uM (%) [2]: B (key: (A)=31-95%; (B)=0-30%)
c1coc(-c2ccc(CNC34CC5CC(CC(C5)C3)C4)cc2)c1 [Example 31a, N-(4-(Furan-2-yl)benzyl)adamantan-1-amine] | – | A (key: (A)=31-95%; (B)=0-30%) | V27A OOcyte Inhibition at 100 uM (%) [2]: B (key: (A)=31-95%; (B)=0-30%)
c1ccc2[nH]c(CNC34CC5CC(CC(C5)C3)C4)cc2c1 [Example 93, Adamantan-1-yl-(1H-indol-2-ylmethyl)-amine] | A (key: (A)=31-95%; (B)=0-30%) | – | V27A OOcyte Inhibition at 100 uM (%) ([2]; pH 5.5): B (key: (A)=31-95%; (B)=0-30%)
c1ccc2cc(COc3ccc(CNC45CC6CC(CC(C6)C4)C5)cc3)ccc2c1 [Example 38a, N-(4-(naphthalen-2-ylmethoxy)benzyl)adamantan-1-amine] | – | B (key: (A)=31-95%; (B)=0-30%) | V27A OOcyte Inhibition at 100 uM (%) [2]: B (key: (A)=31-95%; (B)=0-30%)
CC(NC12CC3CC(CC(C3)C1)C2)c1ccc(I)s1 (centres unmarked) [Example 82a, N-(1-(5-iodothiophen-2-yl)ethyl)adamantan-1-amine] | – | B (key: (A)=31-95%; (B)=0-30%) | V27A OOcyte Inhibition at 100 uM (%) [2]: A (key: (A)=31-95%; (B)=0-30%)
C[Si](C)(C)c1ccc(CNC23CC4CC(CC(O)(C4)C2)C3)cc1 [Example 193a, (1s,3r,5R,7S)-3-((4-(trimethylsilyl)benzyl)amino)adamantan-1-ol] | – | A (key: (A)=31-95%; (B)=0-30%) | –
c1cn(-c2ccc(CNC34CC5CC(CC(C5)C3)C4)s2)cn1 [Example 161a, N-((5-(1H-imidazol-1-yl)thiophen-2-yl)methyl)adamantan-1-amine] | – | B (key: (A)=31-95%; (B)=0-30%) | –
OC12CC3CC(C1)CC(NCc1noc(C4CCCCC4)n1)(C3)C2 [Example 86b, (1s,3r,5R,7S)-3-(((5-cyclohexyl-1,2,4-oxadiazol-3-yl)methyl)amino)adamantan-1-ol] | A (key: (A)=31-95%; (B)=0-30%) | – | –
OC12CC3CC(C1)CC(NCc1cc4cc(Br)sc4s1)(C3)C2 [Example 195a, 3-[(5-Bromo-thieno[2,3-b]thiophen-2-ylmethyl)-amino]-adamantan-1-ol] | – | A (key: (A)=31-95%; (B)=0-30%) | –
Clc1ccccc1-c1ccc(CNC23CC4CC(CC(C4)C2)C3)nc1 [Example 72b, Adamantan-1-yl-[5-(2-chloro-phenyl)-pyridin-2-ylmethyl]-amine] | A (key: (A)=31-95%; (B)=0-30%) | – | –
Brc1ccsc1CNC12CC3CC(CC(C3)C1)C2 [Example 47b, N-((3-Bromothiophen-2-yl)methyl)adamantan-1-amine] | B (key: (A)=31-95%; (B)=0-30%) | – | –

Compound | S31N OOcyte Inhibition at 100 uM (%) ([1]; pH 5.5) | S31N OOcyte Inhibition at 100 uM (%) [1] | further results
Cn1cc(CNC23CC4CC(CC(C4)C2)C3)nn1 [Example 18b, N-((1-methyl-1H-1,2,3-triazol-4-yl)methyl)adamantan-1-amine] | B (key: (A)=31-95%; (B)=0-30%) | – | –
Oc1cc(-c2ccsc2)ccc1CNC12CC3CC(CC(C3)C1)C2 [Example 8b] | A (key: (A)=31-95%; (B)=0-30%) | – | –
CC(C)(C)c1ccc(-c2ccc(CNC34CC5CC(CC(C5)C3)C4)s2)cc1 [Example 50b, N-((5-(4-(tert-Butyl)phenyl)thiophen-2-yl)methyl)adamantan-1-amine] | A (key: (A)=31-95%; (B)=0-30%) | – | –
Cc1oc(-c2cccs2)nc1CNC12CC3CC(CC(C3)C1)C2 [Example 145a, N-((5-methyl-2-(thiophen-2-yl)oxazol-4-yl)methyl)adamantan-1-amine] | – | B (key: (A)=31-95%; (B)=0-30%) | –
Fc1ccc(-c2cc(CNC34CC5CC(CC(C5)C3)C4)no2)cc1 [Example 118a, N-((5-(4-fluorophenyl)isoxazol-3-yl)methyl)adamantan-1-amine] | – | A (key: (A)=31-95%; (B)=0-30%) | –
Cc1noc(C)c1-c1nc(CNC23CC4CC(CC(C4)C2)C3)no1 [Example 25b, N-((5-(3,5-dimethylisoxazol-4-yl)-1,2,4-oxadiazol-3-yl)methyl)adamantan-1-amine] | B (key: (A)=31-95%; (B)=0-30%) | – | –
Oc1ccc(CNC23CC4CC(CC(O)(C4)C2)C3)c(O)c1 [Example 196a, 4-[(3-Hydroxy-adamantan-1-ylamino)-methyl]-benzene-1,3-diol] | – | A (key: (A)=31-95%; (B)=0-30%) | –
c1csc(C2=NOC(CNC34CC5CC(CC(C5)C3)C4)C2)c1 (centres unmarked) [Example 168a, N-((3-(thiophen-2-yl)-4,5-dihydroisoxazol-5-yl)methyl)adamantan-1-amine] | – | A (key: (A)=31-95%; (B)=0-30%) | –
c1ccc(-c2ncc(CNC34CC5CC(CC(C5)C3)C4)cn2)nc1 [Example 64a, N-((2-(pyridin-2-yl)pyrimidin-5-yl)methyl)adamantan-1-amine] | – | B (key: (A)=31-95%; (B)=0-30%) | –
Ic1ccc(CNC23CC4CC(CC(C4)C2)C3)s1 [Example 91a, N-((5-Iodothiophen-2-yl)methyl)adamantan-1-amine] | – | A (key: (A)=31-95%; (B)=0-30%) | –
Cc1nc(CNC23CC4CC(CC(C4)C2)C3)cs1 [Example 12b, N-((2-methylthiazol-4-yl)methyl)adamantan-1-amine] | A (key: (A)=31-95%; (B)=0-30%) | – | –
COc1ccc(-c2nc(CNC34CC5CC(CC(C5)C3)C4)no2)cc1 [Example 126a, N-((5-(4-methoxyphenyl)-1,2,4-oxadiazol-3-yl)methyl)adamantan-1-amine] | – | A (key: (A)=31-95%; (B)=0-30%) | –
Clc1ccc2[nH]c(CNC34CC5CC(CC(C5)C3)C4)nc2c1 [Example 181a, Adamantan-1-yl-(5-chloro-1H-benzoimidazol-2-ylmethyl)-amine] | – | A (key: (A)=31-95%; (B)=0-30%) | –
C(#Cc1cccs1)CNC12CC3CC(CC(C3)C1)C2 [Example 88b] | A (key: (A)=31-95%; (B)=0-30%) | – | –
OC12CC3CC(C1)CC(NCc1ccc(Cl)s1)(C3)C2 [Example 189a, 3-[(5-Chloro-thiophen-2-ylmethyl)-amino]adamantan-1-ol] | – | B (key: (A)=31-95%; (B)=0-30%) | –
CCCc1cc(CNC23CC4CC(CC(C4)C2)C3)no1 [Example 26b, N-((5-propylisoxazol-3-yl)methyl)adamantan-1-amine] | A (key: (A)=31-95%; (B)=0-30%) | – | –
Cc1ccc(CNC23CC4CC(CC(C4)C2)C3)cc1 [Example 8a, N-(4-Methylbenzyl)adamantan-1-amine] | – | B (key: (A)=31-95%; (B)=0-30%) | –
CCSc1ncc(CNC23CC4CC(CC(C4)C2)C3)cn1 [Example 56b, N-((2-(ethylthio)pyrimidin-5-yl)methyl)adamantan-1-amine] | A (key: (A)=31-95%; (B)=0-30%) | – | –
Cc1ncc(CN(Cc2cnc(C)s2)C23CC4CC(CC(C4)C2)C3)s1 [Example 202a, N,N-bis((2-methylthiazol-5-yl)methyl)adamantan-1-amine] | – | B (key: (A)=31-95%; (B)=0-30%) | –
Clc1ccc(CNC23CC4CC(CC(C4)C2)C3)nn1 [Example 70b, Adamantan-1-yl-(6-chloro-pyridazin-3-ylmethyl)-amine] | B (key: (A)=31-95%; (B)=0-30%) | – | –
